This note sets out measurements from US20250136558A1, “PYRAZINE COMPOUNDS AS IRREVERSIBLE INHIBITORS OF FLT3” (BIOMEA FUSION, INC., priority 2021, published 2025).

Holding throughout (type): cell-based
For one assay, the system named is MOLM-13. Put plainly: Proliferation inhibition (CellTiter-Glo) in MOLM-13 cells. Particulars: Homo sapiens, 96 h, MOLM-13 AML cells, heterozygous FLT3-ITD, IC50 (4 days). Summed up:
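MOLM-13 human AML cells, heterozygous for FLT3-ITD, were grown in RPMI-1640 with 10% heat-inactivated FBS and 1% Pen-Strep. About 10,000 cells in 200 μL were seeded per well of 96-well plates. After 2 hours, compounds from DMSO stocks were dispensed at eight concentrations in duplicate, with 0.2% DMSO as the untreated control. Viability was read as CellTiter-Glo ATP luminescence, and IC50 was obtained from a four-parameter logistic fit.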
(In ATP-based viability assays light output follows the ATP content of the culture.)

The next assay deals with MV-4-11. The experiment in a line: Proliferation inhibition (CellTiter-Glo) in MV-4-11 cells. Particulars: Homo sapiens, MV4-11, 96 h, MV-4-11 AML cells, homozygous FLT3-ITD, IC50 (4 days). In outline:
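MV-4-11 human AML cells (homozygous FLT3-ITD) grown in RPMI-1640 with 10% heat-inactivated FBS and 1% Pen-Strep were seeded at about 10,000 cells per 200 μL in 96 well plates. Two hours later, compounds were dispensed at eight concentrations in duplicate. Viability was measured by CellTiter-Glo luminescence, and IC50 values came from four-parameter logistic non-linear regression against untreated cells (0.2% DMSO).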

A further assay deals with K-562. Put plainly: Proliferation inhibition (CellTiter-Glo) in K-562 cells. Particulars: Homo sapiens, K562, 96 h, K-562 CML cells, no FLT3 mutations, IC50 (4 days). In outline: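 The CML line […] (ATCC: CRL-3343) was cultured in RPMI-1640 with 10% heat-inactivated FBS and 1% Pen-Strep at 37° C. Cells were seeded at about 10,000 per 200 μL in 96-well plates, and test compound was dispensed 2 hours later at eight concentrations in duplicate. Viability was measured as ATP luminescence with CellTiter-Glo. Untreated cells (0.2% DMSO) defined 100% proliferation, and IC50 values came from four-parameter logistic fits.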

Structures are written as SMILES. pIC50: −log10 of the molar value.

Regarding `C=CS(=O)(=O)N(C)[C@@H](C)C(=O)NCC#Cc1cccc(Nc2nc(NC3CCOCC3)c(CC)nc2C(N)=O)c1` [Compound 19, (S)-6-Ethyl-3-((3-(3-(2-(N-methylvinylsulfonamido)propanamido)prop-1-yn-1-yl)phenyl)amino)-5-((tetrahydro-2H-pyran-4-yl)amino)pyrazine-2-carboxamide], the pIC50 with MOLM-13, with MV-4-11 and in the assay with K-562 was under 6.30 each time.

For `C=CC(=O)NCCC(=O)NCCc1cc(Nc2nc(NC3CCOCC3)c(CC)nc2C(N)=O)cc(OC)c1` [Compound 29, 3-((3-(2-(3-Acrylamidopropanamido)ethyl)-5-methoxyphenyl)amino)-6-ethyl-5-((tetrahydro-2H-pyran-4-yl)amino)pyrazine-2-carboxamide], the pIC50 (in general, the IC50 on a negative log10 scale, so that one unit is a factor of ten) is 7.00 to 8.00 in the assay with MOLM-13, 7.00 to 8.00 in the assay on MV-4-11 and under 6.30 with K-562.

`C=CC(=O)NCCCOc1cccc(Nc2nc(NC3CCOCC3)c(CC)nc2C(N)=O)c1` [Compound 3, 3-((3-(3-Acrylamidopropoxy)phenyl)amino)-6-ethyl-5-((tetrahydro-2H-pyran-4-yl)amino)pyrazine-2-carboxamide]: the results for the pIC50 with MOLM-13, in the assay on MV-4-11 and with K-562 were 6.30 to 7.00, 6.30 to 7.00 and under 6.30, respectively.

With `CCc1nc(C(N)=O)c(Nc2cc(CCNC(=O)[C@H](C)N(C)C(=O)/C=C/CN(C)C)cc(OC)c2)nc1NC1CCOCC1` [Compound 110, 3-[3-[2-[[(2S)-2-[[(E)-4-(dimethylamino)but-2-enoyl]-methyl-amino]propanoyl]amino]ethyl]-5-methoxy-anilino]-6-ethyl-5-(tetrahydropyran-4-ylamino)pyrazine-2-carboxamide], the pIC50 is 8.00 to 9.00 in the assay with MOLM-13, over 9.00 with MV-4-11 and under 6.30 with K-562.

Consider `C=CC(=O)NCC#Cc1cccc(Nc2nc(NC3CCOCC3)c(CC)nc2C(N)=O)c1` [Compound 9, 3-((3-(3-Acrylamidoprop-1-yn-1-yl)phenyl)amino)-6-ethyl-5-((tetrahydro-2H-pyran-4-yl)amino)pyrazine-2-carboxamide], for which the pIC50 is 7.00 to 8.00 in the assay with MOLM-13, 7.00 to 8.00 with MV-4-11 and under 6.30 with K-562.

Regarding `C#CC(=O)NCC#Cc1cccc(Nc2nc(NC3CCOCC3)c(CC)nc2C(N)=O)c1` [Compound 13, 6-Ethyl-3-((3-(3-propiolamidoprop-1-yn-1-yl)phenyl)amino)-5-((tetrahydro-2H-pyran-4-yl)amino)pyrazine-2-carboxamide], the pIC50 was 7.00 to 8.00 in the assay on MOLM-13, 7.00 to 8.00 with MV-4-11 and 6.30 to 7.00 in the assay with K-562.

As for `C#CC(=O)NCCC(=O)NCCc1cc(Nc2nc(NC3CCOCC3)c(CC)nc2C(N)=O)cc(OC)c1` [Compound 31, 6-Ethyl-3-((3-methoxy-5-(2-(3-propiolamidopropanamido)ethyl)phenyl)amino)-5-((tetrahydro-2H-pyran-4-yl)amino)pyrazine-2-carboxamide], the pIC50 with MOLM-13 was 8.00 to 9.00; in the assay with MV-4-11, over 9.00; in the assay with K-562, under 6.30.

In the case of `CCc1nc(C(N)=O)c(Nc2cccc(OCCCNC(=O)[C@H](C)N(C)C(=O)/C=C/CN(C)C)c2)nc1N(C)C(C)C` [Compound 145, (S,E)-3-((3-(3-(2-(4-(dimethylamino)-N-methylbut-2-enamido)propanamido)propoxy)phenyl)amino)-6-ethyl-5-(isopropyl(methyl)amino)pyrazine-2-carboxamide], the pIC50 was 8.00 to 9.00 with MOLM-13, over 9.00 in the assay on MV-4-11 and under 6.30 in the assay with K-562.

For `C=CS(=O)(=O)NCCNc1cc(Nc2nc(NC3CCOCC3)c(CC)nc2C(N)=O)ccn1` [Compound 23, 6-Ethyl-5-((tetrahydro-2H-pyran-4-yl)amino)-3-((2-((2-(vinylsulfonamido)ethyl)amino)pyridin-4-yl)amino)pyrazine-2-carboxamide], the pIC50 in the assay with MOLM-13 was 7.00 to 8.00; with MV-4-11 it was 7.00 to 8.00; in the assay on K-562 it was 6.30 to 7.00.

With `C=CC(=O)N(C)CCCC(=O)NCCc1cc(Nc2nc(NC3CCOCC3)c(CC)nc2C(N)=O)cc(OC)c1` [Compound 30, 6-Ethyl-3-((3-methoxy-5-(2-(4-(N-methylacrylamido)butanamido)ethyl)phenyl)amino)-5-((tetrahydro-2H-pyran-4-yl)amino)pyrazine-2-carboxamide], the pIC50 in the assay with MOLM-13 was 6.30 to 7.00; in the assay with MV-4-11, 8.00 to 9.00; in the assay on K-562, under 6.30.

For the compound `C#CC(=O)NCCC#Cc1cccc(Nc2nc(NC3CCOCC3)c(CC)nc2C(N)=O)c1` [Compound 15, 6-Ethyl-3-((3-(4-propiolamidobut-1-yn-1-yl)phenyl)amino)-5-((tetrahydro-2H-pyran-4-yl)amino)pyrazine-2-carboxamide], the pIC50 with MOLM-13 is 7.00 to 8.00; with MV-4-11, 7.00 to 8.00; in the assay with K-562, under 6.30.

On to `C=CC(=O)NCCN1CCc2ccc(Nc3nc(NC4CCOCC4)c(CC)nc3C(N)=O)cc2C1=O` [Compound 106], for which the pIC50 is 7.00 to 8.00 with MOLM-13, 7.00 to 8.00 in the assay on MV-4-11 and under 6.30 with K-562.

As for `CCc1nc(C(N)=O)c(Nc2cccc(CCNC(=O)[C@H](C)N(C)C(=O)/C=C/CN(C)C)c2)nc1NC1CCOCC1` [Compound 135, (S,E)-3-((3-(2-(2-(4-(dimethylamino)-N-methylbut-2-enamido)propanamido)ethyl)phenyl)amino)-6-ethyl-5-((tetrahydro-2H-pyran-4-yl)amino)pyrazine-2-carboxamide], the figures for the pIC50 in the assay with MOLM-13, in the assay with MV-4-11 and with K-562 were over 9.00, over 9.00 and under 6.30, respectively.

Regarding `C=CC(=O)N1CCC(C(=O)Nc2cccc(Nc3nc(NC4CCOCC4)c(CC)nc3C(N)=O)c2)C1` (stereo not drawn) [Compound 112, 6-ethyl-3-[3-[(1-prop-2-enoylpyrrolidine-3-carbonyl)amino]anilino]-5-(tetrahydropyran-4-ylamino)pyrazine-2-carboxamide], the pIC50 with MOLM-13 is 6.30 to 7.00; with MV-4-11, 6.30 to 7.00; in the assay with K-562, under 6.30.

For the compound `C#CC(=O)N(C)CCCC(=O)NCCc1cc(Nc2nc(NC3CCOCC3)c(CC)nc2C(N)=O)cc(OC)c1` [Compound 32, 6-ethyl-3-[3-methoxy-5-[2-[4-[methyl(prop-2-ynoyl)amino]butanoylamino]ethyl]anilino]-5-(tetrahydropyran-4-ylamino)pyrazine-2-carboxamide], the pIC50 is 8.00 to 9.00 in the assay on MOLM-13, over 9.00 in the assay with MV-4-11 and under 6.30 in the assay on K-562.

On to `CCc1nc(C(N)=O)c(Nc2cc(CCNC(=O)[C@H](C)N(C)C(=O)C#CCN(C)C)cc(OC)c2)nc1NC1CCOCC1` [Compound 136, (S)-3-((3-(2-(2-(4-(dimethylamino)-N-methylbut-2-ynamido)propanamido)ethyl)-5-methoxyphenyl)amino)-6-ethyl-5-((tetrahydro-2H-pyran-4-yl)amino)pyrazine-2-carboxamide], for which the pIC50 was 8.00 to 9.00 with MOLM-13, over 9.00 in the assay on MV-4-11 and under 6.30 in the assay with K-562.

For `C#CC(=O)NCCCOc1cccc(Nc2nc(NC3CCOCC3)c(CC)nc2C(N)=O)c1` [Compound 7, 6-Ethyl-3-((3-(3-propiolamidopropoxy)phenyl)amino)-5-((tetrahydro-2H-pyran-4-yl)amino)pyrazine-2-carboxamide], the pIC50 is 8.00 to 9.00 in the assay on MOLM-13, 7.00 to 8.00 in the assay on MV-4-11 and 6.30 to 7.00 with K-562.

For the compound `C#CC(=O)NCCCCOc1cccc(Nc2nc(NC3CCOCC3)c(CC)nc2C(N)=O)c1` [Compound 5, 6-Ethyl-3-((3-(4-propiolamidobutoxy)phenyl)amino)-5-((tetrahydro-2H-pyran-4-yl)amino)pyrazine-2-carboxamide], the pIC50 in the assay on MOLM-13 was 7.00 to 8.00; with MV-4-11, 7.00 to 8.00; in the assay on K-562, under 6.30.

`C=CC(=O)NCCCCOc1cccc(Nc2nc(NC3CCOCC3)c(CC)nc2C(N)=O)c1` [Compound 1, 3-((3-(4-Acrylamidobutoxy)phenyl)amino)-6-ethyl-5-((tetrahydro-2H-pyran-4-yl)amino)pyrazine-2-carboxamide]: the pIC50 in the assay on MOLM-13 was 6.30 to 7.00; with MV-4-11, 7.00 to 8.00; with K-562 it was under 6.30.

With `CC#CC(=O)NCCCCOc1cccc(Nc2nc(NC3CCOCC3)c(CC)nc2C(N)=O)c1` [Compound 6, 3-((3-(4-(But-2-ynamido)butoxy)phenyl)amino)-6-ethyl-5-((tetrahydro-2H-pyran-4-yl)amino)pyrazine-2-carboxamide], the pIC50 is 6.30 to 7.00 in the assay with MOLM-13, 6.30 to 7.00 in the assay with MV-4-11 and under 6.30 in the assay with K-562.

Take `CCc1nc(C(N)=O)c(Nc2cccc(OCCCNC(=O)[C@H](C)N(C)C(=O)/C=C/CN3CC(F)C3)c2)nc1NC1CCOCC1` [Compound 139, (S,E)-6-Ethyl-3-((3-(3-(2-(4-(3-fluoroazetidin-1-yl)-N-methylbut-2-enamido)propanamido)propoxy)phenyl)amino)-5-((tetrahydro-2H-pyran-4-yl)amino)pyrazine-2-carboxamide]: the values for the negative-log IC50 (pIC50) in the assay on MOLM-13, in the assay on MV-4-11 and in the assay with K-562 were 8.00 to 9.00, over 9.00 and under 6.30, respectively.
